From patent US7534887B2, “Thiazoline derivative and use of the same” (Takeda Pharmaceutical Company Limited, priority 2003, dated 2009) come the findings set out here.

The target in this test is human FXa (Homo sapiens, UniProt P00742). Description: Inhibitory action of human activated blood coagulation factor X (FXa). Type of test: biochemical. As to conditions: concentration inhibiting FXa activity by 50%; substrate S-2765, 37° C., absorbance at 405 nm. The protocol: (1) Inhibitory Action of Human Activated Blood Coagulation Factor X (FXa):
Test method: A solution (225 μL) of 0.05M tris-hydrochloric acid buffers (pH=8.3) containing 0.145 M of sodium chloride and 2 mM of calcium chloride, a test compound dissolved in dimethyl sulfoxide (5 μL) and human FXa (10 μL, 0.3 unit/ml) were added to a 96-well microplate and reacted at 37° C. for about 10 minutes, and then a substrate (10 μL, 3 mM, S-2765) was added to be reacted at 37° C. for 10 minutes. Then, after aqueous 50% acetic acid (25 μL) was added there to stop the reaction, the change of absorbance at 405 nm was measured by a microplatereader, and a concentration inhibiting FXa activity by 50% (IC50) was calculated.

pIC50: −log10 of the molar value. Where a name gives a salt, the structure may show the parent alone.

Sequence of human FXa (P00742 235-488 limits assumed): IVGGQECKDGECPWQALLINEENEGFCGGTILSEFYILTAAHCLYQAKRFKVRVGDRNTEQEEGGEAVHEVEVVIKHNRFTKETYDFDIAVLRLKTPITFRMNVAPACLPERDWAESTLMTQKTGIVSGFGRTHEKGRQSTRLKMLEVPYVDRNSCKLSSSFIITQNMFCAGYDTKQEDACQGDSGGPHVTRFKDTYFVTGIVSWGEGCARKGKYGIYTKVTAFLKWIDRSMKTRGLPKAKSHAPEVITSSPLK
Sequence of human FXa (P00742 41-179 partner limits assumed): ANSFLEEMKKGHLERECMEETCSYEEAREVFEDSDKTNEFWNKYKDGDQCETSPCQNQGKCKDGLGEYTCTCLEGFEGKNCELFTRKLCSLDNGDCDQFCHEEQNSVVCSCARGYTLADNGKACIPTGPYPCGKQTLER

Compound `C/N=c1\scc(CN2CCN(C(=O)CCS(=O)(=O)c3ccc4cc(Cl)ccc4c3)CC2)n1C` [Example 5, N-((2Z)-4-((4-(3-((6-Chloro-2-naphthyl)sulfonyl)propanoyl)-1-piperazinyl)methyl)-3-methyl-1,3-thiazol-2(3H)-ylidene)-N-methylamine dihydrochloride] had a pIC50 of 7.24.

For the compound `Cn1c(CN2CCN(C(=O)CCS(=O)(=O)c3ccc4cc(Cl)ccc4c3)CC2)csc1=N` [Example 12, 4-((4-(3-((6-Chloro-2-naphthyl)sulfonyl)propanoyl)-1-piperazinyl)methyl)-3-methyl-1,3-thiazol-2(3H)-imine dihydrochloride], the pIC50 was 7.66.

Take `C/N=c1\sc(C2CCN(C(=O)CCS(=O)(=O)c3ccc4cc(Cl)ccc4c3)CC2)c(CO)n1C` [Example 38]: the pIC50 was 7.96.

`COC(=O)C1CN(CC2=CSC3=NCCN23)CCN1C(=O)CCS(=O)(=O)c1ccc2cc(Cl)ccc2c1` (stereo not shown) [Example 44, Methyl 1-(3-((6-chloro-2-naphthyl)sulfonyl)propanoyl)-4-(5,6-dihydroimidazo[2,1-b][1,3]thiazol-3-ylmethyl)piperazine-2-carboxylate] showed a pIC50 of 7.85.

The compound `Cn1cc(C2CCN(C(=O)CCS(=O)(=O)c3ccc4cc(Cl)ccc4c3)CC2)sc1=N` [Example 58, 5-(1-(3-((6-Chloro-2-naphthyl)sulfonyl)propanoyl)-4-piperidinyl)-3-methyl-1,3-thiazol-2(3H)-imine] gave a pIC50 of 7.22.

Take `C/N=c1\sc(C2CCN(C(=O)CCS(=O)(=O)c3ccc4cc(Cl)ccc4c3)CC2)c(C(=O)O)n1C` [Example 68, (2Z)-5-(1-(3-((6-Chloro-2-naphthyl)sulfonyl)propanoyl)-1-piperidinyl)-3-methyl-2-(methylimino)-2,3-dihydro-1,3-thiazole-4-carboxylic acid]: the pIC50 was 8.08.

`C/N=c1\sc(C2CCN(C(=O)CCS(=O)(=O)c3ccc4cc(Cl)ccc4c3)CC2)c(C(=O)OC)n1C` [Example 77, Methyl (2Z)-5-(1-(3-((6-chloro-2-naphthyl)sulfonyl)propanoyl)-1-piperidinyl)-3-methyl-2-(methylimino)-2,3-dihydro-1,3-thiazol-4-carboxylate] showed a pIC50 of 8.03.

`C/N=c1\sccn1CCC1CCN(C(=O)CCS(=O)(=O)c2ccc3cc(Cl)ccc3c2)CC1` [Example 83] gave a pIC50 of 8.17.

`O=C(CCS(=O)(=O)c1ccc2cc(Cl)ccc2c1)N1CCC(/N=c2\sccn2CCO)CC1` [Example 92, 2-((2Z)-2-((1-(3-((6-Chloro-2-naphthyl)sulfonyl)propanoyl)-4-piperidinyl)imino)-1,3-thiazol-3(2H)-yl)ethanol] had a pIC50 of 7.33.

In the case of “N-((2Z)-5-(1-(3-((6-Chloro-2-naphthyl)sulfonyl)propanoyl)-1-piperidinyl)-3-methyl-1,3-thiazol-2(3H)-ylidene)-N-methylamine [Example 46]”, the pIC50 is 7.52.

As usually defined, the pIC50 is the IC50 on a negative log10 scale, so that one unit is a factor of ten. A higher pIC50 goes with a low IC50.
